Measured values published in patent US9856279B2 (AGIOS PHARMACEUTICALS, INC, priority 2011, dated 2018).

How the values were obtained:
IDH1 R132H = IDH1 R132H (Homo sapiens, UniProt O75874, R132H); experiment: Assay for IDH1 R132H inhibitors (NADPH/aKG, resazurin detection); format: biochemical; conditions: enzyme assay of Example 12; read-out: IDH1R132H IC50
How it was run: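 Compound added to substrate mix (8 uM NADPH, 2 mM aKG), then enzyme mix (0.2 μg/ml IDH1 R132H); 50 min RT in 20 mM Tris pH 7.5, 150 mM NaCl, 10 mM MgCl2, 0.03% BSA. Resazurin detection mix (30 μM) 5 min RT; resorufin fluorescence Ex544/Em590.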

U87MG cells = experiment: Cellular assay for IDH1m inhibitors: inhibition of 2-HG production (LC-MS, 48 hours) in U87MG cells; format: cell-based; conditions: Homo sapiens, U-87 MG, inhibition of 2-HG production, U87R132H cells; read-out: U87R132H IC50
How it was run: (§1)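 5000 cells/well, DMEM + 10% FBS, overnight 37 °C/5% CO2; compound added (0.2% DMSO final), 48 h; medium sampled for LC-MS 2-HG; IC50 vs DMSO control.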

HT1080 cells = experiment: Cellular assay for IDH1m inhibitors: inhibition of 2-HG production (LC-MS, 48 hours) in HT1080 cells; format: cell-based; conditions: Homo sapiens, HT-1080; inhibition of 2-HG production, HT1080 cells; read-out: HT1080 IC50
How it was run: as §1

Sequence of IDH1 R132H (O75874 whole entry R132H): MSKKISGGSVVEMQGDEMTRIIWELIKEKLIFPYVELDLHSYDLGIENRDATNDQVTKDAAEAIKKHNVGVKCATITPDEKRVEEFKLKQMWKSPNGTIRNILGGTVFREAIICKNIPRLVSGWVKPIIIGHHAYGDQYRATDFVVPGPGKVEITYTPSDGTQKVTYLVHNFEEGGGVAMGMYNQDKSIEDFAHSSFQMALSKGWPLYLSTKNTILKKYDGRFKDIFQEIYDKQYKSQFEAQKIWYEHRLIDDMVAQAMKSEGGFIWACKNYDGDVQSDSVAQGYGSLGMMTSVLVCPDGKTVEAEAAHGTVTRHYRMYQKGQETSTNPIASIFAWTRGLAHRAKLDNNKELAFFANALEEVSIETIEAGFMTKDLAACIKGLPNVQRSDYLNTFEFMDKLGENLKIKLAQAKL

Compound | IC50 (IDH1 R132H) | IC50 (U87MG cells) | IC50 (HT1080 cells)
C=Cc1nccc2ccc(-c3cc(C#N)c(N4CCN(C(=O)C5CC5)[C@H](C5CC5)C4)nc3C3CC3)cc12 [Compound 710, (R)-2-(4-(cyclopropanecarbonyl)-3-cyclopropylpiperazin-1-yl)-6-cyclopropyl-5-(1-vinylisoquinolin-7-yl)nicotinonitrile] | < 500 nM | < 500 nM | < 500 nM
C=Cc1cc(Nc2cc(C#N)c(N3CCN(C(=O)COC)[C@H](C4CC4)C3)nc2C2CC2)ccn1 [Compound 711, (R)-6-cyclopropyl-2-(3-cyclopropyl-4-(2-methoxyacetyl)piperazin-1-yl)-5-((2-vinylpyridin-4-yl)amino)nicotinonitrile] | < 500 nM | < 500 nM | < 500 nM
C#Cc1ccnc(N(c2cc(C#C)ccn2)c2cc(C#N)c(N3CCN(C(=O)CCOC)[C@H](C)C3)nc2C2CC2)c1 [Compound 714, (R)-5-(bis(4-ethynylpyridin-2-yl)amino)-6-cyclopropyl-2-(4-(3-methoxypropanoyl)-3-methylpiperazin-1-yl)nicotinonitrile] | < 500 nM | < 500 nM | < 500 nM
C=Cc1cc(-c2cc(C#N)c(N3CCN(C(=O)COC)[C@H](C4CC4)C3)nc2C2CC2)cnn1 [Compound 715, (R)-6-cyclopropyl-2-(3-cyclopropyl-4-(2-methoxyacetyl)piperazin-1-yl)-5-(6-vinylpyridazin-4-yl)nicotinonitrile] | < 500 nM | < 500 nM | < 500 nM
C=Cc1cnnc(-c2cc(C#N)c(N3CCN(C(=O)CCO)[C@H](C4CC4)C3)nc2C2CC2)c1 [Compound 716, (R)-6-cyclopropyl-2-(3-cyclopropyl-4-(3-hydroxypropanoyl)piperazin-1-yl)-5-(5-vinylpyridazin-3-yl)nicotinonitrile] | < 500 nM | < 500 nM | < 500 nM
C=Cc1cc(-c2cc(C#N)c(N3CCN(C(=O)COC)[C@H](C4CC4)C3)nc2C2CC2)c2ccncc2n1 [Compound 717, (R)-6-cyclopropyl-2-(3-cyclopropyl-4-(2-methoxyacetyl)piperazin-1-yl)-5-(2-vinyl-1,7-naphthyridin-4-yl)nicotinonitrile] | < 500 nM | < 500 nM | < 500 nM
COCC(=O)N1CCN(c2nc(C3CC3)c(Nc3ccnc(Cl)c3)cc2C#N)C[C@H]1C1CC1 [Compound 718, (R)-5-((2-chloropyridin-4-yl)amino)-6-cyclopropyl-2-(3-cyclopropyl-4-(2-methoxyacetyl)piperazin-1-yl)nicotinonitrile] | < 500 nM | < 500 nM | 500 to 1000 nM
C=Cc1cc(-c2cc(C#N)c(N3CCN(C(=O)CCO)[C@H](C4CC4)C3)nc2C2CC2)nc(N)n1 [Compound 719, (R)-5-(2-amino-6-vinylpyrimidin-4-yl)-6-cyclopropyl-2-(3-cyclopropyl-4-(3-hydroxypropanoyl)piperazin-1-yl)nicotinonitrile] | < 500 nM | < 500 nM | < 500 nM
C=Cc1ccc2ccc(-c3cc(C#N)c(N4CCN(C(=O)CCO)[C@H](C5CC5)C4)nc3C3CC3)cc2n1 [Compound 720, (R)-6-cyclopropyl-2-(3-cyclopropyl-4-(3-hydroxypropanoyl)piperazin-1-yl)-5-(2-vinylquinolin-7-yl) nicotinonitrile] | < 500 nM | < 500 nM | < 500 nM
C=Cc1cc(-c2cc(C#N)c(N3CCN(C(=O)CCO)[C@H](C(C)C)C3)nc2C2CC2)ccn1 [Compound 721, (R)-2-cyclopropyl-6-(4-(3-hydroxypropanoyl)-3-isopropylpiperazin-1-yl)-2′-vinyl-3,4′-bipyridine-5-carbonitrile] | < 500 nM | < 500 nM | < 500 nM
C=Cc1cc(Nc2cc(C#N)c(N3CCN(C(=O)CCO)[C@H](C4CC4)C3)nc2C2CC2)c2ccncc2n1 [Compound 722, (R)-6-cyclopropyl-2-(3-cyclopropyl-4-(3-hydroxypropanoyl)piperazin-1-yl)-5-((2-vinyl-1,7-naphthyridin-4-yl)amino)nicotinonitrile] | < 500 nM | < 500 nM | < 500 nM
C=Cc1cnnc(-c2cc(C#N)c(N3CCN(C(=O)COC)[C@H](C4CC4)C3)nc2C2CC2)c1 [Compound 724, (R)-6-cyclopropyl-2-(3-cyclopropyl-4-(2-methoxyacetyl)piperazin-1-yl)-5-(5-vinylpyridazin-3-yl)nicotinonitrile] | < 500 nM | < 500 nM | < 500 nM
C=Cc1ccnc(Nc2c(C3CC3)nc(N3CCN(C(=O)CCO)[C@H](C4CC4)C3)c(C#N)c2C)c1 [Compound 725, (R)-6-cyclopropyl-2-(3-cyclopropyl-4-(3-hydroxypropanoyl)piperazin-1-yl)-4-methyl-5-((4-vinylpyridin-2-yl)amino)nicotinonitrile] | < 500 nM | < 500 nM | < 500 nM
C=Cc1cc(-c2cc(C#N)c(N3CCN(C(=O)COC)[C@H](C(C)C)C3)nc2C2CC2)ccn1 [Compound 726, (R)-2-cyclopropyl-6-(3-isopropyl-4-(2-methoxyacetyl)piperazin-1-yl)-2′-vinyl-3,4′-bipyridine-5-carbonitrile] | < 500 nM | < 500 nM | < 500 nM
C=CC(=O)N1CCC=C(c2cc(C#N)c(N3CCN(C(=O)CCO)[C@H](C4CC4)C3)nc2C2CC2)C1 [Compound 727, (R)-5-(1-acryloyl-1,2,5,6-tetrahydropyridin-3-yl)-6-cyclopropyl-2-(3-cyclopropyl-4-(3-hydroxypropanoyl)piperazin-1-yl)nicotinonitrile] | < 500 nM | < 500 nM | < 500 nM
C=CC(=O)N1CCC=C(c2cc(C#N)c(N3CCN(C(=O)COC)[C@H](C4CC4)C3)nc2C2CC2)C1 [Compound 728, (R)-5-(1-acryloyl-1,2,5,6-tetrahydropyridin-3-yl)-6-cyclopropyl-2-(3-cyclopropyl-4-(2-methoxyacetyl)piperazin-1-yl)nicotinonitrile] | < 500 nM | < 500 nM | < 500 nM
C=Cc1cc(N(C)c2cc(C#N)c(N3CCN(C(=O)CCO)[C@H](C4CC4)C3)nc2C2CC2)ccn1 [Compound 730, (R)-6-cyclopropyl-2-(3-cyclopropyl-4-(3-hydroxypropanoyl)piperazin-1-yl)-5-(methyl(2-vinylpyridin-4-yl)amino)nicotinonitrile] | < 500 nM | < 500 nM | < 500 nM
C=Cc1ccc2ccc(Nc3cc(C#N)c(N4CCN(C(=O)CCOC)[C@H](C)C4)nc3C3CC3)cc2n1 [Compound 732, (R)-6-cyclopropyl-2-(4-(3-methoxypropanoyl)-3-methylpiperazin-1-yl)-5-(2-vinylquinolin-7-ylamino) nicotinonitrile] | < 500 nM | < 500 nM | < 500 nM
C=Cc1ccnc(Oc2cc(C#N)c(N3CCN(C(=O)CCOC)[C@H](C4CC4)C3)nc2C2CC2)c1 [Compound 733] | < 500 nM | < 500 nM | 500 to 1000 nM
C=Cc1ccc2c(-c3cc(C#N)c(N4CCN(C(=O)CCO)[C@H](C5CC5)C4)nc3C3CC3)cncc2n1 [Compound 735, (R)-6-cyclopropyl-2-(3-cyclopropyl-4-(3-hydroxypropanoyl)piperazin-1-yl)-5-(2-vinyl-1,7-naphthyridin-5-yl)nicotinonitrile] | < 500 nM | < 500 nM | < 500 nM
